From patent US9321740B2, “Tetrazole compounds and methods of making and using same” (Zafgen, Inc., priority 2011, dated 2016)

Target: T1, recombinant human MetAP2 (Homo sapiens, UniProt P50579)
T1 construct: Flag; made in house; host or cells: Sf9 insect cells
Test: Inhibition of recombinant human MetAP2 activity (MAS substrate, amino acid oxidase/Amplex red fluorescence)
Assay type: biochemical
Settings: manganese enzyme, 30 minutes at 25° C., pH 7.5, 0.75 mM MAS substrate, 1% DMSO; read-out: Activity (MetAP2 IC50 class)
Description: Compounds are tested for their capacity to inhibit recombinant human MetAP2 activity using the following assay.
Human recombinant Flag-MetAP2 expressed in Sf9 cells followed by affinity purification and EDTA treatment to remove endogenous active site cation was dialysed against MnCl2 to produce the manganese enzyme used in the assay. The assay was carried out for 30 minutes at 25° C. in 50 mM HEPES buffer containing 100 mM NaCl, pH 7.5 the presence of 0.75 mM Methionine-Alanine-Serine (MAS) substrate and 50 μg/mL amino acid oxidase using a dilution of purified MetAP2 giving approximately 50,000 RFU control activity. Cleavage of the substrate by MetAP2 and oxidation of free methionine by amino acid oxidase was detected and quantified using fluorescence generated by Amplex red (10-acetyl-3,7-dihydroxyphenoxazine) in combination with horseradish peroxidase which detects H2O2 released during the oxidation step. The fluorescent signal was detected using a multiwell fluorimeter. Compounds were diluted in DMSO prior to addition to assay buffer, the final DMSO concentration in the assay being 1%.
The IC50 is defined as the concentration at which a given compound achieves 50% inhibition of control. IC50 values are calculated using the XLfit software package (version 2.0.5).

T1 sequence (P50579 whole entry): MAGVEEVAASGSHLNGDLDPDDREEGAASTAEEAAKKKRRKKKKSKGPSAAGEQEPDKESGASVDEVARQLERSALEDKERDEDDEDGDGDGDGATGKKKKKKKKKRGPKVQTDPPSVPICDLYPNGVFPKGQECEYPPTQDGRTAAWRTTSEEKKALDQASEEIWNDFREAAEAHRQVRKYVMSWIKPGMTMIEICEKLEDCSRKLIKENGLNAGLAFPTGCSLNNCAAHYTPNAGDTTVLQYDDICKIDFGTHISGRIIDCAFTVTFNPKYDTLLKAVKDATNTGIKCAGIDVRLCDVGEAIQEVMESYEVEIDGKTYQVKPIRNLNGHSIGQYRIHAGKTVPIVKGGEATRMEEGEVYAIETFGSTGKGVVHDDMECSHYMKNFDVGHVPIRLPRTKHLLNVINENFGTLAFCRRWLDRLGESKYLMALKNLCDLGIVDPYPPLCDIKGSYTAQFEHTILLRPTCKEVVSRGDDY

Cc1cccc(NS(=O)(=O)c2ccccc2)c1-c1nnn[nH]1 [N-[3-Methyl-2-(1H-tetrazol-5-yl)-phenyl]-benzenesulfonamide]
IC50: > 1 µM

O=S(=O)(Nc1ccc2c(c1-c1nnn[nH]1)CCCC2)c1ccccc1 [N-[1-(1H-Tetrazol-5-yl)-5,6,7,8-tetrahydronaphthalen-2-yl]-benzenesulfonamide]
IC50: > 1 µM

O=S(=O)(Nc1cccc(C2CC2)c1-c1nnn[nH]1)c1ccccc1 [N-[3-Cyclopropyl-2-(1H-tetrazol-5-yl)-phenyl]-benzenesulfonamide]
IC50: < 1 µM

O=S(=O)(Nc1cccc(Br)c1-c1nnn[nH]1)c1ccccc1 [N-[3-Bromo-2-(1H-tetrazol-5-yl)-phenyl]-benzenesulfonamide]
IC50: > 1 µM

COc1cccc(NS(=O)(=O)c2ccccc2)c1-c1nnn[nH]1 [N-[3-Methoxy-2-(1H-tetrazol-5-yl)-phenyl]-benzenesulfonamide]
IC50: < 1 µM
